In one test the test system is female ICR mice. In words: In vivo hEPO mRNA expression, serum hEPO after tail vein injection. The note with it: 0.5 mg/kg tail vein; for in vivo mRNA expression of sphingomyelin-containing LNP compared to corresponding DSPC control formulation: FIG. 9; for hEPO protein expression level in mice among formulations of Table 6.7: FIG. 7, sphingomyelin of different tail length. The method, then:
Lipid nanoparticles encapsulating human erythropoietin (hEPO) mRNA were prepared as described above, and systemically administered to 6-8 week old female ICR mice (Xipuer-Bikai, Shanghai) at 0.5 mg/kg dose by tail vein injection. Mice were euthanized by CO2 overdoses at 6 hours post administration, and blood samples were taken for hEPO measurement. Particularly, serum were separated from total blood by centrifugation at 5000 g for 10 minutes at 4° C., snap-frozen and stored at −80° C. for analysis. The serum hEPO level was measured using an ELSA assay carried out using a commercial kit (DEP00, R&D systems) according to manufacturer's instructions. The hEPO expression levels (μg/ml) measured from the tested group are plotted in FIG. 4, showing the mean value and standard deviation (SD) of at least five repeated experiments (test animals) for each group.
(§1) Each LNP formulation was systemically administered to 6-8 week old female ICR mice (Xipuer-Bikai, Shanghai) at 0.5 mg/kg dose by tail vein injection, and blood samples were taken for hEPO measurement as described herein. The hEPO expression levels (μg/ml) measured from the tested group are plotted in FIG. 6, showing the mean value and standard deviation (SD) of at least five repeated experiments (test animals) for each group.
Each LNP formulation was systemically administered to 6-8 week old female ICR mice (Xipuer-Bikai, Shanghai) at 0.5 mg/kg dose by tail vein injection, and blood samples were taken for hEPO measurement as described herein. The hEPO expression levels (μg/ml) measured from the tested group are plotted in FIG. 7, showing the mean value and standard deviation (SD) of at least five repeated experiments (test animals) for each group.
as §1, with “9,” for “6,”, “group. As shown, for each of the tested cationic lipids, the average in vivo expression level of mRNA was higher for the sphingomyelin containing composition as compared to the corresponding control formulation containing an equivalent amount of DSPC instead of sphingomyelin.” for “group.”

Another test relates to Hela cells. In words: In vitro GFP mRNA expression from LNP formulations. In kind it is cell-based. The conditions noted are these: for in vitro GFP expression of LNP formulated using sphingomyelin with this cationic lipid: FIG. 3C. The method, then:
Lipid nanoparticles encapsulating green fluorescent protein (GFP) mRNA were prepared as described above. Hela cell line was seeded in a 96-well plate. LNP formulation was mixed with 10 μg/mL ApoE at 1:1 (v/v) ratio, then added to the cells at 200 ng/well or 400 ng/well concentrations, and incubated for 36 to 48 hours. GFP intensity was measured with […] following manufacturer's instructions, and fluorescence intensity (relative light units; RLU) of different groups were plotted in FIG. 3A to 3C, showing the mean value and standard deviation (SD) of at least five repeated experiments for each group.
Hela cell line was seeded in a 96-well plate. LNP formulation was mixed with 10 μg/mL ApoE at 1:1 (v/v) ratio at 37° C. for 15 min, then added to the cells at 400 ng/well concentrations, and incubated for 36 to 48 hours. GFP intensity was measured with […] following manufacturer's instructions, and fluorescence intensity (relative light units; RLU) of different groups were plotted in FIG. 8, showing the mean value and standard deviation (SD) of at least three repeated experiments for each group.

Molecules are shown by their SMILES.

Take `CCCCCCCCC(CCCCCC)C(=O)OCCCCCCN(CCCCO)CCCCCCOC(=O)C(CCCCCC)CCCCCCCC` (stereo not drawn) [ALC-0315, reference compound]: the “in vivo mRNA expression of sphingomyelin-containing LNP compared to corresponding DSPC control formulation” value in the test with female ICR mice is recorded as “significantly higher”.

As for `CCCCCCCCC(CCCCCC)COC(=O)CCCCCN(CCCCCC(=O)OCC(CCCCCC)CCCCCCCC)CCN(CCO)C1CCC1` (stereo not drawn) [Formulation C1], in the test on female ICR mice, the “in vivo mRNA expression of sphingomyelin-containing LNP compared to corresponding DSPC control formulation” value is recorded as “significantly higher”. For the same molecule, the “in vitro GFP expression of LNP formulated using sphingomyelin with this cationic lipid” value in the test on Hela cells is listed as “enhanced in vitro GFP expression”.

In the case of `CCCCCCCCC(CCCCCCCC)CNC(=O)CCCCCN(CCO)CCN(CCCCCC(=O)OCC(CCCCCCCC)CCCCCCCC)C1CCC1` [Formulation C3], in the test on Hela cells (GFP mRNA, 400 ng/well, FIG. 8), the “in vitro mRNA expression of sphingomyelin-containing LNP compared to corresponding DSPC control formulation” value is recorded as “significantly higher”.

Regarding `CCCCCCCC(=O)OCC(CCCCN(CCCCCO)CCCCC(COC(=O)CCCCCCC)COC(=O)CCCCCCC)COC(=O)CCCCCCC` [Formulation C14], the “in vivo mRNA expression of sphingomyelin-containing LNP compared to corresponding DSPC control formulation” value in the test with female ICR mice is given as “significantly higher”.

`CCCCC/C=C\C/C=C\CCCCCCCC(=O)OCCCCCCN(CCO)CCCCC(COC(=O)CCCCCCC)COC(=O)CCCCCCC` [Formulation C16]: the “in vivo mRNA expression of sphingomyelin-containing LNP compared to corresponding DSPC control formulation” value with female ICR mice is given as “significantly higher”.

Consider `CCCCCCCCCOC(=O)CCCCCCCN(CCO)CCCCCCCC(=O)OC(CCCCCCCC)CCCCCCCC` [Lipid 5, reference compound], for which, in the test with Hela cells, the “in vitro GFP expression of LNP formulated using sphingomyelin with this cationic lipid” value was “enhanced in vitro GFP expression”.

As for `CCCCCCCCCCCCC/C=C/[C@@H](O)[C@H](COP(=O)([O-])OCC[N+](C)(C)C)NC(=O)CCCCCCCCCCCCC` [SM-02, 14:0(d18:1/14:0)], the “hEPO protein expression level in mice among formulations of Table 6.7” value with female ICR mice is given as “highest protein expression level”.

In the case of `CCCCCCCCCCCCC/C=C/[C@@H](O)[C@H](COP(=O)([O-])OCC[N+](C)(C)C)NC(=O)CCCCCCCCCCCCCCC` [SM-03, 16:0(d18:1/16:0)], in the test with female ICR mice, the “hEPO protein expression level in mice among formulations of Table 6.7” value was “highest protein expression level”.

Source of the values: patent US20240218399A1, “LIPID COMPOUNDS AND LIPID NANOPARTICLE COMPOSITIONS” (SUZHOU ABOGEN BIOSCIENCES CO., LTD., priority 2021, published 2024).
